Laboratory results as given in PMC3566143, “Pantothenamides Are Potent, On-Target Inhibitors of Plasmodium falciparum Growth When Serum Pantetheinase Is Inactivated” (PLoS ONE, 2013).
Where two headings read alike, the source gives them in different places.

What was measured:
[1] = test system: erythrocytic stage P. falciparum parasites (strain 3D7); assay: SYBR Green I-based in vitro growth assay (96 h); type: cell-based, Plasmodium falciparum; settings: for IC50: 1 µM pantothenate, 96 h; for effect on parasite growth in fresh Albumax-complete RPMI: fresh medium, up to 200 µM (highest concentration tested)
Description: Erythrocytic stage P. falciparum parasites (strain 3D7) were maintained within human erythrocytes in continuous culture essentially as described previously, [25]. P. falciparum-infected erythrocytes were routinely cultured in RPMI 1640 medium supplemented with 25 mM HEPES, 20 mM D-glucose, 200 µM hypoxanthine, 24 mg/L gentamycin and Albumax II (0.6%, w/v), which, hereafter is referred to as Albumax-complete RPMI. For several days prior to carrying out the assays testing the effect of compounds on the growth of P. falciparum in medium supplemented with human serum (instead of Albumax II), the parasites were cultured in the same medium mentioned above, except that human serum (10%, v/v, pooled from different blood donors) was used rather than Albumax II. This medium is hereafter referred to as human serum-complete RPMI.
The in vitro antiplasmodial activity of test compounds was determined using the malaria SYBR Green I-based fluorescence assay described by Smilkstein et al., with minor modifications. Briefly, P. falciparum-infected erythrocytes were incubated in culture medium containing two-fold dilutions of the test compounds in 96-well microtiter plates. Assays were initiated with ring-stage P. falciparum-infected erythrocytes at a hematocrit and parasitemia of 1%. Wells containing infected erythrocytes in the presence of chloroquine (0.25–2 µM) served as zero growth controls and wells containing infected erythrocytes in the absence of chloroquine or test compounds served as 100% parasite growth controls. Plates were incubated at 37°C under an atmosphere of 96% nitrogen, 3% carbon dioxide and 1% oxygen for 96 h, before 100 µL from each well was mixed with 100 µL of SYBR Safe DNA gel stain (0.2 µL/mL) in 20 mM Tris, pH 7.5, 5 mM ethylenediaminetetraacetic acid (EDTA), 0.008% (w/v) saponin, 0.08% (v/v) Triton X-100, in a second 96-well microtitre plate. Fluorescence was measured using a FLUOstar OPTIMA multidetection microplate reader from BMG LABTECH with excitation and emission wavelengths of 490 and 520 nm, respectively. The 50% inhibitory concentration (IC50) of each test compound under each test condition was calculated by fitting the data to a sigmoidal curve (typically y = a/(1+ (x/x0)^b) using nonlinear least squares regression (SigmaPlot, Systat Software) and averaging the IC50 estimates from independent experiments.
The antiplasmodial activity of test compounds was assessed in media that had been subjected to different pre-incubations. “Fresh” medium refers to medium that was stored for a maximum of 48 h at 4°C, and incubated at 37°C for a maximum of 1 h, prior to use. “Aged” medium refers to medium that was stored for a minimum of one week at 4°C and incubated intermittently at 37°C, or medium incubated continuously at 37°C for 40 h soon after preparation. As indicated at the relevant positions within the “Results” section, for some experiments the fresh medium used was, more specifically, medium used immediately following preparation, and the aged medium used was, more specifically, medium that was incubated at 37°C for 40 h immediately prior to use.

P. falciparum PanK = assay: [14C]pantothenate phosphorylation assay with P. falciparum lysate; type: biochemical, Plasmodium falciparum; settings: 100 µM pantothenamide, 0.2 µM [14C]pantothenate, 10 min
Description: To assess the effect of the pantothenamides on pantothenate phosphorylation by P. falciparum PanK, the phosphorylation of [^14C]pantothenate by P. falciparum lysates was measured in the presence and absence of a single concentration of each pantothenamide. P. falciparum lysate was prepared from trophozoite stage parasites “isolated” from their host erythrocyte by treatment with 0.05% (w/v) saponin (essentially as described by Saliba et al.), and washed (five times) in HEPES-buffered saline (125 mM NaCl, 5 mM KCl, 20 mM D-glucose, 25 mM HEPES, 1 mM MgCl2, pH 7.1). Lysates were prepared as described by van Schalkwyk et al., except that 10 mM potassium phosphate, pH 7.4 (rather than 10 mM Tris, pH 7.4), was used to lyse the cells. Aliquots of lysate were stored at −20°C. The concentration of cell lysates was determined from cell counts made using an improved Neubauer hemocytometer.
[^14C]Pantothenate phosphorylation was assayed using the Somogyi reagent essentially as described by Saliba et al., except that pantothenate phosphorylation was terminated by heat denaturation (rather than acid denaturation) of the protein in reaction aliquots. Briefly, P. falciparum lysate was added to solutions (at 37°C) of 50 mM Tris, 5 mM ATP, 5 mM MgCl2, at pH 7.4, containing [^14C]pantothenate (at a final concentration of 0.01 µCi/mL, or 0.2 µM), and a pantothenamide (at a final concentration of 100 µM) or an equivalent volume of solvent. Typically, lysate prepared from 5.4–6.5×10^7 parasites was present in each mL of reaction solution. Zero phosphorylation control reactions were prepared by adding a corresponding volume of 10 mM potassium phosphate instead of parasite lysate. Following a ten minute incubation at 37°C (a period during which pantothenate phosphorylation increased linearly with time in the absence of inhibitors) 200 µL aliquots of the [^14C]pantothenate phosphorylation reactions were transferred in duplicate to microcentrifuge tubes, and immediately incubated at 95°C for 10 min to terminate phosphorylation. Terminated reaction samples were centrifuged at 15 800×g for 10 min to pellet the denatured protein, before two aliquots of each supernatant (typically 80 µL) were transferred to new microcentrifuge tubes. To one aliquot, 500 µL Somogyi reagent was added, and to the other, 500 µL water was added. The samples were processed for determination of phosphorylated [^14C]pantothenate as described previously.

[2] = Plasmodium falciparum, 3D7, 96 h, fresh Albumax-complete RPMI, read-out: IC50 against P. falciparum, fresh medium, 1 μM pantothenate
[3] = Plasmodium falciparum, 3D7, aged Albumax-complete RPMI (37°C for 40 h), read-out: IC50 against P. falciparum, aged medium, 1 μM pantothenate
[4] = fresh Albumax-complete RPMI, IC50 at 100 µM pantothenate / IC50 at 1 µM pantothenate

Row | Structure (SMILES) | IC50 [1, 2] [µM] | IC50 [1, 3] [µM] | Inhibition of pantothenate phosphorylation at 100 μM (P. falciparum PanK) [%] | further results
1 | CCCCCNC(=O)CCNC(=O)[C@H](O)C(C)(C)CO [Compound 1] | 124 ± 15 | 2 ± 0.2 | 99 ± 1 | 
2 | CCCCCCCNC(=O)CCNC(=O)[C@H](O)C(C)(C)CO [Compound 2] | > 200 |  | 99 ± 1 | 
3 | CC(C)(CO)[C@@H](O)C(=O)NCCC(=O)NCCc1ccccc1 [Compound 3] |  |  | 100 | IC50 ([1]; Plasmodium falciparum, 3D7, 96 h, aged Albumax-complete RPMI, read-out: IC50 against P. falciparum in aged medium): 0.02 ± 0.002 µM
4 | COc1ccc(CCNC(=O)CCNC(=O)[C@H](O)C(C)(C)CO)cc1OC [Compound 4] | > 200 | > 200 | 100 | 
5 | CC(CCc1ccccc1)NC(=O)CCNC(=O)[C@H](O)C(C)(C)CO (some centres unmarked) [Compound 5] | > 200 | > 200 | 94 ± 3 | 
6 | COc1cc(CNC(=O)CCNC(=O)[C@H](O)C(C)(C)CO)cc(OC)c1OC [Compound 6] | > 200 | > 200 | 96 ± 2 | 
7 | CC(C)(CO)[C@@H](O)C(=O)NCCC(=O)N1CCN(Cc2ccccc2)CC1 [Compound 7] | > 200 | > 200 | 98 ± 2 | 
8 | CC(C)(CO)[C@@H](O)C(=O)NCCC(=O)NCCN1CCOCC1 [Compound 8] | > 200 | > 200 | 94 ± 5 | 
9 | COc1ccc(CNC(=O)CCNC(=O)[C@H](O)C(C)(C)CO)cc1 [Compound 9] | > 200 |  | 99 ± 1 | 
10 | CC1C(NC(=O)CCNC(=O)C(O)C(C)(C)CO)CC2CC1C2(C)C (centres unmarked) [Compound 10] | > 200 | > 200 | 100 | 
11 | CCCNC(=O)CCNC(=O)[C@H](O)C(C)(C)CO [Compound 11] | 134 ± 22 | 0.34 ± 0.01 | 100 | 
12 | CC(C)=CCC/C(C)=C/CNC(=O)CCNC(=O)[C@H](O)C(C)(C)CO [Compound 13] | 66 ± 4 | 150 ± 5 | 100 | fold-increase in IC50 following supplementation with 100 µM pantothenate, fresh medium [1, 4]: 1±0.1 times
13 | CSCCNC(=O)CCNC(=O)[C@H](O)C(C)(C)CO [Compound 14] | > 200 | > 200 | 100 | effect on parasite growth in fresh Albumax-complete RPMI [1]: little effect
14 | COCCNC(=O)CCNC(=O)[C@H](O)C(C)(C)CO [Compound 15] | > 200 | > 200 | 100 | effect on parasite growth in fresh Albumax-complete RPMI [1]: lacked antiplasmodial activity
15 | CC(C)(CO)[C@@H](O)C(=O)NCCC(=O)NCCO [Compound 16] | > 200 |  | 100 | effect on parasite growth in fresh Albumax-complete RPMI [1]: without effect
16 | CCSCCNC(=O)CCNC(=O)[C@H](O)C(C)(C)CO [Compound 17] | 44 ± 5 | 0.067 ± 0.002 | 95 ± 5 | 
17 | CSCCCNC(=O)CCNC(=O)[C@H](O)C(C)(C)CO [Compound 18] | 76 ± 12 | 0.23 ± 0.06 | 98 ± 2 | 
18 | CCOCCCNC(=O)CCNC(=O)[C@H](O)C(C)(C)CO [Compound 19] | 49 ± 8 | 0.27 ± 0.06 | 96 ± 4 | fold-increase in IC50 following supplementation with 100 µM pantothenate, aged medium ([1]; aged Albumax-complete RPMI, IC50 at 100 µM pantothenate / IC50 at 1 µM pantothenate): 24±1 times; fold-increase in IC50 following supplementation with 100 µM pantothenate, fresh medium [1, 4]: 1.7±0.4 times
19 | CC(C)(CO)[C@@H](O)C(=O)NCCC(=O)NCCCO [Compound 20] | > 200 |  | 94 ± 6 | effect on parasite growth in fresh Albumax-complete RPMI [1]: without effect
20 | COCCCNC(=O)CCNC(=O)[C@H](O)C(C)(C)CO [Compound 21] | 166 ± 18 | 1.9 ± 0.5 | 98 ± 2 | 
21 | CCOCCNC(=O)CCNC(=O)[C@H](O)C(C)(C)CO [Compound 22] | 162 ± 20 | 1.4 ± 0.1 | 100 | 
22 | CC(C)(CO)[C@@H](O)C(=O)NCCCO [pantothenol, reference compound] |  |  |  | inhibition at 2000 µM ([1]; Plasmodium falciparum, 3D7, 2 mM, Albumax-complete RPMI supplemented with 100 µM pantothenate, fresh and aged, read-out: inhibition of growth at highest concentration tested with 100 µM pantothenate): < 50%; effect of additional Albumax II on activity in aged medium ([1]; aged medium + additional Albumax II (0.6%, w/v)): unaffected; activity in aged versus fresh Albumax-complete RPMI ([1]; aged vs fresh medium, P = 0.32): comparable in aged and fresh medium
